Literature values as cited in patent US20130150323A1, “USE OF ORAL HEPARIN PREPARATIONS TO TREAT URINARY TRACT DISEASES AND CONDITIONS” (Urigen Pharmaceuticals, Inc, priority 2010, published 2013).
Like-named read-outs stand apart in the source and are kept apart here. Values belong to the compound of their own block, whether it stands above or below them.

Columns and labels:
[1] = tested on: bladder mucus layer of normal human volunteers; conditions: intravesically administered; 0.4 M potassium solution
IC patients [2] = conditions: intravesical
IC patients [3] = conditions: intravesical instillations
[4] = tested on: interstitial cystitis patients; conditions: oral, double blind studies, 16% on placebo
[5] = oral

Compound: heparin
effect on protamine chemical injury of mucus layer (potassium absorption, urgency and pain) [1]: reversed
patients treated in whom effective (IC patients [2]): approximately 50%

Compound: C[S+](C)[O-] [DMSO, dimethylsulfoxide]
IC patients treated with benefit (IC patients [3]): ~50%

Compound: O=S(=O)(O)CCS [Mesnex, mesna]
frequency of adverse events (all AEs) (cancer patients; IV): 85%
frequency of adverse events (all AEs) (cancer patients; oral): 89%

availability of this drug orally [5]: 2-3%
Compound: pentosanpolysulfate
good response, patients on active drug [4]: 34%
